Patent US20230014430A1, “Methods and Compositions for Generating Functionally Mature Beta Cells and Uses Thereof” (Washington University, priority 2019, published 2023)

B1: TGFβ2: TGFβ agonist (growth factor) (protein, UniProt P61812 303-414, looked up)
Transforming growth factor …: ALDAAYCFRNVQDNCCLRPLYIDFKRDLGWKWIHEPKGYNANFCAGACPYLWSSDTQHSRVLSLYNTINPEASASPCCVSQDLEPLTILYYIGKTPKIEQLSNMIVKSCKCS

Experiments:
Type in all cases: cell-based, human
SIX2 gene expression = test: SC-β cells treated with a library of compounds to identify SIX2 regulators; conditions: FIG. 11
Experimental: FIG. 11. Regulators of SIX2. SC-β cells were treated with a library of compound to identify SIX2 regulators. […] (B) Negative Regulators of SIX2 gene expression. (C) Flow cytometry of SC-β cells treated with SIX2 regulators.
Here, regulators of SIX2 gene expression were discovered (see e.g., FIG. 11). It was discovered that (1) regulators of SIX2 affect the % of SC-β cells generated (see e.g., FIG. 12); (2) SIX2 regulators influence SC-β cell function (see e.g., FIG. 13); (3) SIX2 is expressed by only a fraction of C-peptide positive cells (SC-β cells) (see e.g., FIG. 12A, FIG. 2B); and (4) SIX2+ cells secrete insulin in response to glucose when single cell dispersed and plated down (see e.g., FIG. 14).

SC-β cells [1] = test: Static glucose-stimulated insulin secretion of stage 6 cells; conditions: HUES8 hESC and 1013-4FA hiPSC lines, vs sh-ctrl
Experimental: (§1) Gene KD was performed similar to as previously described (Velazco-Cruz et al., 2019). pLKO.1 TRC plasmids containing shRNA sequences targeting GFP (sh-ctrl) and human SIX2 (sh-SIX2-1 and sh-SIX2-2) were received from the RNAi Core at the Washington University. sh-ctrl, […] (SEQ ID NO: 35); sh-SIX2-1, […] (SEQ ID NO: 36); sh-SIX2-2, […] (SEQ ID NO: 37). Viral particles were generated using Lenti-X 293T cells (Takara; 632180) cultured in DMEM (MilliporeSigma; D6429) with 10% heat inactivated fetal bovine serum (MilliporeSigma; F4135). Confluent Lenti-X 293T cells were transfected with […] of shRNA plasmid, […] of psPAX2 (Addgene; 12260), and 1.5 μg pMD2.G (Addgene; 12259) packaging plasmids in 600 μL of Opti-MEM (Life Technologies; 31985-070) and 48 μL of Polyethylenimine ‘Max’ MW 40,000 Da (Polysciences; 24765-2). 16 hours post transfection media was switched. Viral containing supernatant was collected at 96 hours post transfection and concentrated using Lenti-X concentrator (Takara; 631232). Collected lentivirus was tittered using Lenti-X qRT-PCR Titration Kit (Takara; 631235). […]
Measurements were performed as previously described (Velazco-Cruz et al., 2019). […] Insulin was quantified with a human insulin ELISA (ALPCO; 80-INSHU-E10.1). Cell quantification was performed by dispersing with trypLE and counting with the Vi-Cell XR.

SC-β cells [2] = test: Dynamic glucose-stimulated insulin secretion of stage 6 cells (perifusion); conditions: HUES8 hESC and 1013-4FA hiPSC lines, vs sh-ctrl
Experimental: as §1
Measurements were performed as previously described (Velazco-Cruz et al., 2019). […] Insulin was quantified with a human insulin ELISA (ALPCO; 80-INSHU-E10.1). DNA quantification was performed by lysing the cells and measuring with the Quant-iT Picogreen dsDNA assay kit (Invitrogen; P7589). […]

Row | Molecule | regulation of SIX2 expression in SC-β cells (SIX2 gene expression) | static glucose-stimulated insulin secretion (SC-β cells [1]) | dynamic glucose-stimulated insulin secretion (SC-β cells [2])
1 | Nc1nccc2c1ncn2[C@@H]1C=C(CO)[C@@H](O)[C@H]1O [3-Deazaneplanocin A] | positive regulator | – | –
2 | Cc1c[nH]c(-c2cnc(NCCNc3ccc(C#N)cn3)nc2-c2ccc(Cl)cc2Cl)n1 [CHIR99021] | positive regulator | – | –
3 | sh-SIX2-2: lentiviral pLKO.1 TRC shRNA targeting human SIX2, GAGCACCTTCACAAGAATGAA (SEQ ID NO: 37) | – | significant reductions | significant reductions
4 | sh-SIX2-1: lentiviral pLKO.1 TRC shRNA targeting human SIX2, CAACGAGAACTCCAATTCTAA (SEQ ID NO: 36) | – | significant reductions | significant reductions
5 | Nc1ncn([C@@H]2O[C@H](CO)[C@@H](O)[C@H]2O)c(=O)n1 [5-Azacytidine] | positive regulator | – | –
6 | Cc1ccc(-n2nc(C(C)(C)C)cc2NC(=O)Nc2ccc(OCCN3CCOCC3)c3ccccc23)cc1 [doramapimod] | positive regulators | – | –
7 | TGFβ1: TGFβ agonist (growth factor) | positive regulators | – | –
8 | AZD4547 | positive regulators | – | –
9 | B1 | positive regulators | – | –
